{"source": "patent US6559126B2", "about": "(Institut Pasteur, priority 2000, dated 2003)", "key": {"KDR [1]": {"test_system": "KDR", "assay": "Competition assay of 125I-VEGF binding to CHO-KDR cells", "settings": "for efficiency of V1 analogues in displacing 125I-VEGF165 from CHO-KDR cells: displacement curves, FIGS. 10-11; for inhibitory effect on VEGF binding to KDR (CHO-KDR cells): fixed peptide concentration 2.1×10^−4 M, heparin present", "experimental": "Competition assay of binding to CHO-KDR cells. CHO-KDR cells were seeded in 24-well plates at a density of 5×10^5 cells/well. After 24 h, subconfluent plates were transferred at 4 C., and all subsequent operations were done at 4 C. […] The amount of radioactivity bound to the cells was counted in a gamma counter (LKB 1261 Multigamma). The receptor affinity and the number of binding sites per cell were determined by Scatchard's analysis (Scatchard, 1986)."}, "HUAE cells [2]": {"test_system": "HUAE cells", "assay": "VEGF-induced HUAE cell proliferation", "format": "cell-based, human", "settings": "2 ng/ml VEGF, peptide daily, counted after 5 days", "experimental": "(§1) Cell proliferation assay. To test the anti-VEGF antibody neutralizing effect, CPAE cells were plated into 96-well tissue culture plates at a density of 500 cells/well. After 24 h, various concentrations of anti-VEGF antibody were added. The cells were cultured for an additional day and cell proliferation was measured using the Cell proliferation ELISA kit from Boerhinger (Indianapolis, Ind.). Cells were incubated with BrdU for 4 h at 37 C., and the incorporation of BrdU in newly synthetized DNA was quantified by immunoassay as described by the manufacturer. To investigate the peptide effect, after 24 h of CPAE cell growth, 2.1×10^−4M synthetic peptides were added daily to the culture medium. Cell proliferation was assessed after 24 h, 48 h or 72 h as described above. […] Cells were trypsinized and counted after 5 days using a Coulter counter."}, "[3]": {"test_system": "VEGF-induced corneal angiogenesis", "assay": "Rabbit corneal pocket assay", "format": "in vivo", "settings": "day 12; for effect on VEGF-induced corneal angiogenic response: implant with 2 pmol VEGF and 30 nmol peptide; for corneal neovascularization by peptide alone vs vehicle: implant with 30 nmol peptide, no VEGF", "experimental": "Rabbit corneal pocket assay. […] These implants were inserted in New Zealand rabbit (Elevage du Trottis, Esperce, France) corneal stroma 2 mm away from the limbus (Favard et al, 1991). Neovascularization was assessed on day 12 by direct examination with a slit lamp and scored according to a 4 grade scale (grade 1: less than 1 mm long neovessels, grade 2: 1 mm long neovessels, grade 3: 1 to 2 mm long neovessels, grade 4: neovessels extending to the implant). Means and standard deviations were determined on 8 implant groups for each condition."}, "[4]": {"test_system": "VEGF-R2-VEGF165 and NP1-VEGF165 complexes", "assay": "Cross linking of I125 VEGF165 to HUV-EC cells", "format": "binding, human", "settings": "V1 2.4×10−4M and 4.8×10−4M, I125 VEGF165 160 pM", "source_text": "FIG. 19: Cross linking of I125 VEGF165 (160 pM) to HUV-EC cells. 1: Total binding. […] 3: V1, (2.4×10−4M). 4: V1, (4.8×10−4M).\nThe 240-260 kDa complex could correspond to the […] complex and the 160-170 kDa complex could correspond to the NP1 -VEGF 165 complex. The labeling of the two complexes was decreased in the presence of the V1 peptide. (FIG. 19)"}, "CPAE cells": {"test_system": "CPAE cells", "assay": "CPAE cell proliferation assay (BrdU incorporation)", "format": "cell-based, calf", "experimental": "as §1"}, "KDR [5]": {"biological_target": "T1, KDR (Homo sapiens, UniProt P35968)", "T1 construct": "expressed in transfected cells; host or cells: glycosaminoglycan-deficient pgsA 745 CHO cells, psV-7d expression vector", "T1 sequence (P35968 20-1356)": "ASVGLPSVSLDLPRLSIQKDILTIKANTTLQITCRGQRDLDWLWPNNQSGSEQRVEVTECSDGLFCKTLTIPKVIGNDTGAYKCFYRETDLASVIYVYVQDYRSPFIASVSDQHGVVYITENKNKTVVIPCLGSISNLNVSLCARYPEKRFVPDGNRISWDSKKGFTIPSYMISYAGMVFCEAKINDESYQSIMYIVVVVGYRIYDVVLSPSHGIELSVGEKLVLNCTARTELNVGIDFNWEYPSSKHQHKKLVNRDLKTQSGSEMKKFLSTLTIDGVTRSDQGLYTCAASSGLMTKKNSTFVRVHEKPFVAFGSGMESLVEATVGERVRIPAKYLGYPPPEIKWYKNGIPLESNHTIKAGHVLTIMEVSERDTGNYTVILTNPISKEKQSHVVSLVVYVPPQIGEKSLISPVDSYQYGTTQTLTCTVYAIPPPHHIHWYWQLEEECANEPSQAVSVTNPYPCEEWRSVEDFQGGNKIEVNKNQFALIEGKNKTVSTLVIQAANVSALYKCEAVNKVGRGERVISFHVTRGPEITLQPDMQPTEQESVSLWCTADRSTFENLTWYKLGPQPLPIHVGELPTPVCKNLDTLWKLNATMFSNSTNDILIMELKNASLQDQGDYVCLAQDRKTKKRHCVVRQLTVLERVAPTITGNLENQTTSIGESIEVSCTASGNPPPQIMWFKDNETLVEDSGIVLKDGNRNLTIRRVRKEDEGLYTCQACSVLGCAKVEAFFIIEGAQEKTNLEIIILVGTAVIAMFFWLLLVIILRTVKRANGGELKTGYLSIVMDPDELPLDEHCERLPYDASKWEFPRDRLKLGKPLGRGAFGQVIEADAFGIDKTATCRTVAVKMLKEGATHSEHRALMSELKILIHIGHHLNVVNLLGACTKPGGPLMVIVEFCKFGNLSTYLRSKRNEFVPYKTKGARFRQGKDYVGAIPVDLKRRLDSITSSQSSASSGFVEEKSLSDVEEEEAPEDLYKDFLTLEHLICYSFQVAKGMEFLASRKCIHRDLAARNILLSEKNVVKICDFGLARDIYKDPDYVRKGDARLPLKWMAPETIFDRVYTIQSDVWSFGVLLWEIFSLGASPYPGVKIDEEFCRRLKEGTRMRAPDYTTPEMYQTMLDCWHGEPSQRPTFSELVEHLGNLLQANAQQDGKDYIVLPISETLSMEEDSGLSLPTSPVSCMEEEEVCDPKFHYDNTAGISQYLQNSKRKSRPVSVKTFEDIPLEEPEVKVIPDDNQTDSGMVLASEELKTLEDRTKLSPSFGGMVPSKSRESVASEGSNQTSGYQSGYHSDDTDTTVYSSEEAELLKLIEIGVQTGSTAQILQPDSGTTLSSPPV", "assay": "ELISA of phage-displayed peptide binding to CHO-KDR cells", "settings": "clones selected by anti-VEGF antibody binding, 10^12 pfu/ml", "experimental": "Exponentially growing CHO-KDR cells were seeded in 96-well microtiter plates at 7×10^4 cells/well and left overnight at 37 C. Cells were fixed with paraformaldehyde (4% in PBS) for 15 min at room temperature and washed with PBS. Wells were then filled with PBS-Glycine 0.2%, kept for 15 min at room temperature and then washed with PBS. Phage particles (10^12 or 10^13/Ml) were added to each well and incubated 2 h at room temperature. Wells were washed with PBS and the amount of bound phage was detected with peroxidase-conjugated anti-M13 phage serum (Pharmacia Biotech, Uppsala, Sweden)."}, "HUAE cells [6]": {"test_system": "HUAE cells", "assay": "KDR anti-idiotypic antibody (AIA)-induced HUAE cell proliferation", "format": "cell-based, human", "settings": "100 ng/ml KDR anti-idiotypic antibodies, peptide daily, 5 days", "experimental": "as §1"}, "HUVEC": {"test_system": "HUVEC", "assay": "VEGF165-induced HUVEC proliferation", "format": "cell-based, human", "settings": "V1 400 μg/ml, various VEGF165 concentrations, 96 hours", "experimental": "FIG. 13 Effect of V1 (400 μg/ml) VEGF165 induced HUVEC proliferation. Various concentrations of VEGF165 were added during 96 hours.\nThe inhibitory effect of V1 on Human umbilical vein endothelial cell (HUVEC) in primary culture."}, "neuropilin 1 (NP1)": {"biological_target": "T2, neuropilin 1 (NP1) (Homo sapiens, UniProt O14786)", "T2 construct": "endogenous in cells; host or cells: MDA-MB 231 breast tumoral cell line", "T2 sequence (O14786 22-923)": "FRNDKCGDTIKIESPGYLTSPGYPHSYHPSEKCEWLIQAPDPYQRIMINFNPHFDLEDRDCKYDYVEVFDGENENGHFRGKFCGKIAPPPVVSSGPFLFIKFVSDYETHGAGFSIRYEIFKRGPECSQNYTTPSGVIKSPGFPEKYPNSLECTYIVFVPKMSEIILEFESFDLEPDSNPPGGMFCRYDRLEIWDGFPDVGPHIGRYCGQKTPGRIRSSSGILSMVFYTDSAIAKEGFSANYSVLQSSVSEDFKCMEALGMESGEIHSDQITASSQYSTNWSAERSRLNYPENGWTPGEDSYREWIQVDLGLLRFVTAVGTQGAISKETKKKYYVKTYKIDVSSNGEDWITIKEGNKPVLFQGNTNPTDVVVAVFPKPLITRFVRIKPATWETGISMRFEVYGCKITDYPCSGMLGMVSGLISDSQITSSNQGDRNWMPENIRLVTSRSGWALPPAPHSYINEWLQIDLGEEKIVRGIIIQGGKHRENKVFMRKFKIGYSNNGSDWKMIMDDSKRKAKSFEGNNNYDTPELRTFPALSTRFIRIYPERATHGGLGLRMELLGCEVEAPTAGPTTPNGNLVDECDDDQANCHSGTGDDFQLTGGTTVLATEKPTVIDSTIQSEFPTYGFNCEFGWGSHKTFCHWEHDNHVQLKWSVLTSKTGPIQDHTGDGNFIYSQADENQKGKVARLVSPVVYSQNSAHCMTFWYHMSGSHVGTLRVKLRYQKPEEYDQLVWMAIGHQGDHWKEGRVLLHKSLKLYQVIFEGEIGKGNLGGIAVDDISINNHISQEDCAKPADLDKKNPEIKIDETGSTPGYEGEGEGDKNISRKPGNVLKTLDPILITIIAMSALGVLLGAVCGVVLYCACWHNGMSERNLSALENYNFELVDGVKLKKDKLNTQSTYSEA", "assay": "Displacement of 125I-VEGF165 binding to MDA-MB 231 cells", "settings": "cells without VEGF-R2, expressing NP1; read-out: CI 50 of inhibition of 125I VEGF165 binding to MDA-MB cells (converted)", "source_text": "(§2) Experimental conditions are indicated in the legend of FIG. 10."}, "VEGF-R2 on HUV-EC cells": {"test_system": "VEGF-R2 on HUV-EC cells", "format": "binding", "settings": "for Kd: Scatchard analysis", "source_text": "as §2\n(see FIGS. 16A, B and C)."}}, "note": "Where two headings read alike, the source gives them in different places. Ends that are not written are not given here.", "data": [{"substance": "AAWLPPK [A9, V1 analogue, substitution of the C-terminal arginine by lysine]", "values": [{"measurement": "efficiency of V1 analogues in displacing 125I-VEGF165 from CHO-KDR cells", "setting": "KDR [1]", "result": "reduced the peptide efficiency"}]}, {"substance": "ATALPP [A10]", "values": [{"measurement": "efficiency of V1 analogues in displacing 125I-VEGF165 from CHO-KDR cells", "setting": "KDR [1]", "result": "significantly reduced the peptide efficiency"}]}, {"substance": "ATWLPPA [A7]", "values": [{"measurement": "efficiency of V1 analogues in displacing 125I-VEGF165 from CHO-KDR cells", "setting": "KDR [1]", "result": "totally devoid of activity"}]}, {"substance": "ATWLPPR [V1, ATWLPPR]", "values": [{"measurement": "inhibition of VEGF-induced HUAE cell proliferation", "setting": "HUAE cells [2]", "result": "suppressed the mitogenic activity of VEGF in a dose dependent manner"}, {"measurement": "effect on VEGF-induced corneal angiogenic response", "setting": "[3]", "result": "totally abolished"}, {"measurement": "corneal neovascularization by peptide alone vs vehicle", "setting": "[3]", "result": "did not improve the generation of new blood vessels"}, {"measurement": "labeling of the two 125I-VEGF-receptor complexes", "setting": "[4]", "result": "decreased"}, {"measurement": "reduction of CPAE cell proliferation", "setting": "CPAE cells; 2.1×10^−4 M peptide, 24 h", "result": 60, "unit": "%"}, {"measurement": "ELISA signal of phage clones on CHO-KDR cells", "setting": "KDR [5]", "result": "best reactivities"}, {"measurement": "inhibition of AIA-dependent HUAE cell proliferation", "setting": "HUAE cells [6]", "result": "could suppress the AIA-dependent cell proliferation"}, {"measurement": "inhibition of VEGF-induced HUVEC proliferation", "setting": "HUVEC", "result": "inhibited by V1 in a non competitive manner"}, {"measurement": "IC50", "setting": "neuropilin 1 (NP1)", "result": 45200, "unit": "nM"}, {"measurement": "effect on VEGF binding to HUV-EC cells", "setting": "VEGF-R2 on HUV-EC cells; V1 40 μg/ml, Scatchard", "result": "inhibited only the VEGF binding to high affinity receptors"}, {"measurement": "effect on affinity of I125 VEGF165 for receptors of transfected CHO cells (Scatchard)", "setting": "KDR [1]; V1 50 μg/ml", "result": "lowered"}, {"measurement": "effect on heparin-dependent VEGF165 binding to transfected CHO cells", "setting": "KDR [1]; V1 50 μg/ml", "result": "inhibited this heparin agonistic effect"}, {"measurement": "inhibitory effect on VEGF binding to KDR (CHO-KDR cells)", "setting": "KDR [1]", "result": "showed an inhibitory effect"}]}, {"substance": "Heparin [reference compound]", "values": [{"measurement": "optimal heparin concentration for increasing VEGF binding to CHO-KDR cells", "setting": "KDR [1]", "result": 1.8, "unit": "µg/mL"}]}, {"substance": "ILDNYKL [V5]", "values": [{"measurement": "inhibition of VEGF-induced HUAE cell proliferation", "setting": "HUAE cells [2]", "result": "no inhibitory effect"}, {"measurement": "effect on VEGF-induced corneal angiogenic response", "setting": "[3]", "result": "not modified"}, {"measurement": "corneal neovascularization by peptide alone vs vehicle", "setting": "[3]", "result": "did not improve the generation of new blood vessels"}, {"measurement": "inhibition of AIA-dependent HUAE cell proliferation", "setting": "HUAE cells [6]", "result": "unlike V5, V1 could suppress"}, {"measurement": "effect on VEGF binding to CHO-KDR cells, various concentrations", "setting": "KDR [1]; same conditions as V1 dose response, FIG. 5", "result": "did not modify VEGF binding"}]}, {"substance": "LPPNPTK [V6]", "values": [{"measurement": "ELISA signal of phage clones on CHO-KDR cells", "setting": "KDR [5]", "result": "best reactivities"}, {"measurement": "inhibitory effect on VEGF binding to KDR (CHO-KDR cells)", "setting": "KDR [1]", "result": "no effect on VEGF binding to KDR"}]}, {"substance": "SLPAHAR [K4]", "values": [{"measurement": "effect on endothelial cell growth (words, discussion)", "setting": "CPAE cells; in vitro", "result": "minor effect on endothelial growth"}]}, {"substance": "VEGF", "values": [{"measurement": "Kd", "setting": "VEGF-R2 on HUV-EC cells; read-out: Kd of I125 VEGF165 on HUV-EC cells, high affinity receptors", "result": 0.117, "unit": "nM"}, {"measurement": "Kd", "setting": "VEGF-R2 on HUV-EC cells; read-out: Kd of I125 VEGF165 on HUV-EC cells, second (lower affinity) receptors", "result": 2.3, "unit": "nM"}]}]}
